Reference: US8956677B2, “High-potency sweetener composition with glucosamine and compositions sweetened therewith” (The Coca-Cola Company, priority 2005, dated 2015)

Test: Sensory evaluation of sweetness linger and sugar-like taste by a panel of experts
Type: in vivo
Design: key: 0=no sweetness linger; 1=very slight sweetness linger; 2=slight sweetness linger; 3=moderate sweetness linger; 4=moderately high sweetness linger; 5=high sweetness linger
Method: As used herein, the phrases “sugar-like characteristic,” “sugar-like taste,” “sugar-like sweet,” “sugary,” and “sugar-like” are synonymous. […] These characteristics are dimensions in which the taste of sucrose is different from the tastes of natural and synthetic high-potency sweeteners. Whether or not a characteristic is more sugar-like is determined by expert sensory panel assessments of sugar and compositions comprising at least one natural and/or synthetic high-potency sweetener, both with and without a sweet taste improving composition. Such assessments quantify similarities of the characteristics of compositions comprising at least one natural and/or synthetic high-potency sweetener, both with and without a sweet taste improving composition, with those comprising sugar. Suitable procedures for determining whether a composition has a more sugar-like taste are well known in the art.
In a particular embodiment, a panel of assessors is used to measure the reduction of sweetness linger. Briefly described, a panel of assessors (generally 8 to 12 individuals) is trained to evaluate sweetness perception and measure sweetness at several time points from when the sample is initially taken into the mouth until 3 minutes after it has been expectorated. […] A decrease in score for a time point measured after the sample has cleared the mouth indicates there has been a reduction in sweetness perception.
The panel of assessors may be trained using procedures well known to those of ordinary skill in the art. In a particular embodiment, the panel of assessors may be trained using the Spectrum™ Descriptive Analysis Method (Meilgaard et al, Sensory Evaluation Techniques 3rd edition, Chapter 11). […]
Sensory evaluation of the samples prepared in Example Set G was carried out under the following protocol, similar to that described hereinabove. […] Immediately upon sensing maximal sweetness, the sample was expectorated, the mouth was rinsed with water and the rate of sweetness decay (“Sweetness Linger”) was measured, where attention was focused on the sweetness 3-4 min after the water rinse. […]

rebaudioside A
5: sweetness linger (400 ppm REBA in citric acid/potassium citrate composition equivalent to that in a diet lemon-lime beverage, with or without additive, scale 0-5, sweetness 3-4 min after water rinse) | sweetness linger (500 ppm REBA in carbon-treated water, phosphoric acid (75%) to pH 2.4-2.5, with or without additive, scale 0-5) | Sweetness Linger rating defined for controls (scale anchors defined by the protocol, REBA control sample at 500 ppm)
